# Patent US20160002204A1 (Board of Regents, The University of Texas System, priority 2014, published 2016)
# Tests used:
# [1] = test system: A549 cells; test: A549 proliferation (viability) assay, Cell Titer Fluor, 72 hours; type: cell-based; conditions: Homo sapiens
# Procedure, shortened: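 Compound exposure lasted 72 h (final DMSO 0.5% v/v) on A549 cells plated at 1000 cells/well one day earlier. Cell Titer Fluor added, 30 min at 37 °C, fluorescence read; EC50 derived by four-parameter logistic curve fitting.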
# [2] = biological target: T1, GLS1 (purified recombinant human GAC) (Homo sapiens, UniProt O94925); test: GLS1 enzymatic activity assay (dual-coupled, Amplex UltraRed/resorufin); type: biochemical
# T1 sequence (O94925 55-598 isoform O94925-3 limits assumed): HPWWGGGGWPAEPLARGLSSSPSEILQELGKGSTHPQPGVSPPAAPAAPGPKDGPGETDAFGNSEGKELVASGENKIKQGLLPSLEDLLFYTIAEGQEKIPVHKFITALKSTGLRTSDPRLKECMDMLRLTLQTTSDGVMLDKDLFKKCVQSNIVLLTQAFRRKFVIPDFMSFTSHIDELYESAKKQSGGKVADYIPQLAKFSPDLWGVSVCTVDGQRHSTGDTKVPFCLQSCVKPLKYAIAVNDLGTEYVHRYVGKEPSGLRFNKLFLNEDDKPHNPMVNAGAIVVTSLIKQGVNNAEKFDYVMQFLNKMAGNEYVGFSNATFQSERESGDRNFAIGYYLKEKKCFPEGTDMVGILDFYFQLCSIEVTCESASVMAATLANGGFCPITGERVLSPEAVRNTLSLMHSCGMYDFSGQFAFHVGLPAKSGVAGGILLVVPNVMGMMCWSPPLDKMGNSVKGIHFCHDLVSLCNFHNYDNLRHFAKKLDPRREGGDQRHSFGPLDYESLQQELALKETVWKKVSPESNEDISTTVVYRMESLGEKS
# Procedure, shortened: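 GAC activity measured by coupling glutamate to glutamate oxidase and HRP, generating resorufin from Amplex UltraRed. Enzyme (2 nM) preincubated with 50 mM potassium phosphate 10 min at room temperature, then inhibitor 10 min; 1 mM glutamine substrate, 1% DMSO. Fluorescence 530/590 nm, kinetic or 20-min endpoint; IC50 from four-parameter logistic fit.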
EC50 [1] [nM],IC50 [2] [nM],SMILES
500 to 5000,100 to 500,"O=C(CC1CCNCC1)Nc1ccn(CCC(F)Cn2cc(C(=O)NCc3cccc(OC(F)(F)F)c3)nn2)c(=O)c1 (stereo not shown) [Example 280, 1-(2-fluoro-4-{2-oxo-4-[2-(piperidin-4-yl)acetamido]-1,2-dihydropyridin-1-yl}butyl)-N-{[3-(trifluoromethoxy)phenyl]methyl}-1H-1,2,3-triazole-4-carboxamide]"
< 100,< 100,"CCOC(=O)N1CCC(CC(=O)Nc2ccn(CCC(F)Cn3cc(C(=O)NCc4cccc(OC(F)(F)F)c4)nn3)c(=O)c2)CC1 (stereo not shown) [Example 281, ethyl 4-{[(1-{3-fluoro-4-[4-({[3-(trifluoromethoxy)phenyl]methyl}carbamoyl)-1H-1,2,3-triazol-1-yl]butyl}-2-oxo-1,2-dihydropyridin-4-yl)carbamoyl]methyl}piperidine-1-carboxylate]"
< 100,< 100,"O=C(CN1CCCC(F)C1)Nc1ccn(CC(F)CCn2cc(C(=O)NCc3cccc(OC(F)(F)F)c3)nn2)c(=O)c1 (stereo not shown) [Example 283, 1-(3-fluoro-4-{4-[2-(3-fluoropiperidin-1-yl)acetamido]-2-oxo-1,2-dihydropyridin-1-yl}butyl)-N-{[3-(trifluoromethoxy)phenyl]methyl}-1H-1,2,3-triazole-4-carboxamide]"
< 100,< 100,"CO[C@@H](C(=O)Nc1ccn(CCC(F)Cn2cc(C(=O)NCc3cccc(OC(F)(F)F)c3)nn2)c(=O)c1F)c1ccccc1 (stereo partly drawn) [Example 284, 1-(2-fluoro-4-{3-fluoro-4-[(2R)-2-methoxy-2-phenylacetamido]-2-oxo-1,2-dihydropyridin-1-yl}butyl)-N-{[3-(trifluoromethoxy)phenyl]methyl}-1H-1,2,3-triazole-4-carboxamide]"
< 100,< 100,"O=C(NCc1cccc(OC(F)(F)F)c1)c1cn(CC(F)CCn2ccc(NC(=O)[C@H](O)c3ccccc3)c(F)c2=O)nn1 (stereo partly drawn) [Example 287, 1-(2-fluoro-4-{3-fluoro-4-[(2R)-2-hydroxy-2-phenylacetamido]-2-oxo-1,2-dihydropyridin-1-yl}butyl)-N-{[3-(trifluoromethoxy)phenyl]methyl}-1H-1,2,3-triazole-4-carboxamide]"
< 100,< 100,"O=C(CN1CCC(F)(F)CC1)Nc1ccn(CCC(F)Cn2cc(C(=O)NCc3cccc(OC(F)(F)F)c3)nn2)c(=O)c1F (stereo not shown) [Example 290, 1-(4-{4-[2-(4,4-difluoropiperidin-1-yl)acetamido]-3-fluoro-2-oxo-1,2-dihydropyridin-1-yl}-2-fluorobutyl)-N-{[3-(trifluoromethoxy)phenyl]methyl}-1H-1,2,3-triazole-4-carboxamide]"
100 to 500,< 100,"O=C(CN1CCCC1)Nc1ccn(CCC(F)Cn2cc(C(=O)NCc3cccc(OC(F)(F)F)c3)nn2)c(=O)c1F (stereo not shown) [Example 293, 1-(2-fluoro-4-{3-fluoro-2-oxo-4-[2-(pyrrolidin-1-yl)acetamido]-1,2-dihydropyridin-1-yl}butyl)-N-{[3-(trifluoromethoxy)phenyl]methyl}-1H-1,2,3-triazole-4-carboxamide]"
< 100,< 100,"CC(C)(C)OC(=O)N1CCN(CC(=O)Nc2ccn(CCC(F)Cn3cc(C(=O)NCc4cccc(OC(F)(F)F)c4)nn3)c(=O)c2F)CC1 (stereo not shown) [Example 296, tert-butyl 4-{[(3-fluoro-1-{3-fluoro-4-[4-({[3-(trifluoro-methoxy)phenyl]methyl}carbamoyl)-1H-1,2,3-triazol-1-yl]butyl}-2-oxo-1,2-dihydropyridin-4-yl)carbamoyl]methyl}piperazine-1-carboxylate]"

# Second part, the compound before the results:
SMILES,EC50 [1] [nM],IC50 [2] [nM]
"CS(=O)(=O)N1CCN(CC(=O)Nc2ccn(CCC(F)Cn3cc(C(=O)NCc4cccc(OC(F)(F)F)c4)nn3)c(=O)c2)CC1 (stereo not shown) [Example 279, 1-(2-fluoro-4-{4-[2-(4-methanesulfonylpiperazin-1-yl)acetamido]-2-oxo-1,2-dihydropyridin-1-yl}butyl)-N-{[3-(trifluoromethoxy)phenyl]methyl}-1H-1,2,3-triazole-4-carboxamide]",> 5000,< 100
"Nc1ccn(CCC(F)Cn2cc(C(=O)NCc3cccc(OC(F)(F)F)c3)nn2)c(=O)c1F (stereo not shown) [Example 282, 1-[4-(4-amino-3-fluoro-2-oxo-1,2-dihydropyridin-1-yl)-2-fluorobutyl]-N-{[3-(trifluoromethoxy)phenyl]methyl}-1H-1,2,3-triazole-4-carboxamide]",> 5000,500 to 5000
"CO[C@H](C(=O)Nc1ccn(CCC(F)Cn2cc(C(=O)NCc3cccc(OC(F)(F)F)c3)nn2)c(=O)c1F)c1ccccc1 (stereo partly drawn) [Example 285, 1-(2-fluoro-4-{3-fluoro-4-[(2S)-2-methoxy-2-phenylacetamido]-2-oxo-1,2-dihydropyridin-1-yl}butyl)-N-{[3-(trifluoromethoxy)phenyl]methyl}-1H-1,2,3-triazole-4-carboxamide]",< 100,< 100
"O=C(NCc1cccc(OC(F)(F)F)c1)c1cn(CC(F)CCn2ccc(NC(=O)[C@@H](O)c3ccccc3)c(F)c2=O)nn1 (stereo partly drawn) [Example 286, 1-(2-fluoro-4-{3-fluoro-4-[(2S)-2-hydroxy-2-phenylacetamido]-2-oxo-1,2-dihydropyridin-1-yl}butyl)-N-{[3-(trifluoromethoxy)phenyl]methyl}-1H-1,2,3-triazole-4-carboxamide]",< 100,< 100
"O=C(CN1CCCCC1)Nc1ccn(CCC(F)Cn2cc(C(=O)NCc3cccc(OC(F)(F)F)c3)nn2)c(=O)c1F (stereo not shown) [Example 288, 1-(2-fluoro-4-{3-fluoro-2-oxo-4-[2-(piperidin-1-yl)acetamido]-1,2-dihydropyridin-1-yl}butyl)-N-{[3-(trifluoromethoxy)phenyl]methyl}-1H-1,2,3-triazole-4-carboxamide]",< 100,< 100
"CC(C)(C)OC(=O)N1CCC(CC(=O)Nc2ccn(CCC(F)Cn3cc(C(=O)NCc4cccc(OC(F)(F)F)c4)nn3)c(=O)c2F)CC1 (stereo not shown) [Example 289, tert-butyl 4-{[(3-fluoro-1-{3-fluoro-4-[4-({[3-(trifluoro-methoxy)phenyl]methyl}carbamoyl)-1H-1,2,3-triazol-1-yl]butyl}-2-oxo-1,2-dihydropyridin-4-yl)carbamoyl]methyl}piperidine-1-carboxylate]",< 100,< 100
"O=C(CN1CCCC(F)C1)Nc1ccn(CCC(F)Cn2cc(C(=O)NCc3cccc(OC(F)(F)F)c3)nn2)c(=O)c1F (stereo not shown) [Example 291, 1-(2-fluoro-4-{3-fluoro-4-[2-(3-fluoropiperidin-1-yl)acetamido]-2-oxo-1,2-dihydropyridin-1-yl}butyl)-N-{[3-(trifluoromethoxy)phenyl]methyl}-1H-1,2,3-triazole-4-carboxamide]",< 100,< 100
"CCOC(=O)N1CCN(CC(=O)Nc2ccn(CCC(F)Cn3cc(C(=O)NCc4cccc(OC(F)(F)F)c4)nn3)c(=O)c2F)CC1 (stereo not shown) [Example 292, ethyl 4-{[(3-fluoro-1-{3-fluoro-4-[4-({[3-(trifluoro-methoxy)phenyl]methyl}carbamoyl)-1H-1,2,3-triazol-1-yl]butyl}-2-oxo-1,2-dihydropyridin-4-yl)carbamoyl]methyl}piperazine-1-carboxylate]",< 100,< 100
"CC1(C)CN(CC(=O)Nc2ccn(CCC(F)Cn3cc(C(=O)NCc4cccc(OC(F)(F)F)c4)nn3)c(=O)c2F)CCO1 (stereo not shown) [Example 294, 1-(4-{4-[2-(2,2-dimethylmorpholin-4-yl)acetamido]-3-fluoro-2-oxo-1,2-dihydropyridin-1-yl}-2-fluorobutyl)-N-{[3-(trifluoromethoxy)phenyl]methyl}-1H-1,2,3-triazole-4-carboxamide]",< 100,< 100
"O=C(CN1CCCC(F)(F)C1)Nc1ccn(CCC(F)Cn2cc(C(=O)NCc3cccc(OC(F)(F)F)c3)nn2)c(=O)c1F (stereo not shown) [Example 295, 1-(4-{4-[2-(3,3-difluoropiperidin-1-yl)acetamido]-3-fluoro-2-oxo-1,2-dihydropyridin-1-yl}-2-fluorobutyl)-N-{[3-(trifluoromethoxy)phenyl]methyl}-1H-1,2,3-triazole-4-carboxamide]",< 100,< 100
"CC(C)(C)OC(=O)N1CC2(CN(CC(=O)Nc3ccn(CCC(F)Cn4cc(C(=O)NCc5cccc(OC(F)(F)F)c5)nn4)c(=O)c3F)C2)C1 (stereo not shown) [Example 297, tert-butyl 6-{[(3-fluoro-1-{3-fluoro-4-[4-({[3-(trifluoro-methoxy)phenyl]methyl}carbamoyl)-1H-1,2,3-triazol-1-yl]butyl}-2-oxo-1,2-dihydropyridin-4-yl)carbamoyl]methyl}-2,6-diazaspiro[3.3]heptane-2-carboxylate]",< 100,< 100
"Cc1ccc(CNC(=O)c2cn(CC(F)CCn3ccc(NC(=O)OC(C)(C)C)c(F)c3=O)nn2)cn1 (stereo not shown) [Example 298, tert-butyl N-{3-fluoro-1-[3-fluoro-4-(4-{[(6-methylpyridin-3-yl)methyl]carbamoyl}-1H-1,2,3-triazol-1-yl)butyl]-2-oxo-1,2-dihydropyridin-4-yl}carbamate]",500 to 5000,100 to 500
